SMILES strings stand for the structures. Where a name gives a salt, the structure may show the parent alone. Read-outs that look alike come from different tables or passages of the source.

The subject of one experiment is acetylcholine. Kind of experiment: Anti-acetylcholine Writhing Test. Type of experiment: in vivo, mice. Particulars: subcutaneous; for ED50: Mus musculus, sc, 20 min, read-out: Subcutaneous ED50 (95% Confidence Limits). How it is done: This response has also been called writhing. Animals are pretreated with test compounds (20 minutes for both subcutaneous and oral routes) and observed for two minutes immediately following the administration of acetylcholine. Mice not responding during the two-minute observation period are scored protected while those responding one or more times are scored not protected. Test compounds are screened at doses of 75 and 25 mg./kg. subcutaneously or 150 and 50 mg./kg. orally. […] ED50 values for active compounds are estimated by probit analysis of quantal scores for 4 or more dosage levels using 15 animals per dose. Vehicle-pretreated control animals are tested concurrently with each run of 15 experimental animals.
On the technique in general: An intraperitoneal irritant provokes the stretching counted in writhing tests.

The subject of another experiment is phenazocine. Kind of experiment: Tail-flick Antagonist Test against phenazocine. As to conditions: for ED50: Rattus norvegicus, sc, 10 min, read-out: Subcutaneous AD50 (95% Confidence Limits) Against Phenazocine.

Take `C[C@H]1[C@H]2C(=O)c3ccc(OC(=O)CC(C)(C)C)cc3[C@]1(C)CCN2CC1CC1` (relative stereo) [Example 8, 1,2,3,4,5,6-hexahydro-1-oxo-3-cyclopropylmethyl-8-(3,3-dimethylbutanoyloxy)-6(eq),11(ax)-dimethyl-2,6-methano-3-benzazocine]: the ED50 in the experiment on acetylcholine (form tested not given) was 0.08 mg/kg. `CC[C@H]1[C@H]2C(=O)c3ccc(O)cc3[C@]1(CC)CCN2CC1CC1` (relative stereo) [Example 31C, 1,2,3,4,5,6-hexahydro-1-oxo-3-cyclopropylmethyl-8-hydroxy-6(eq),11(ax)-diethyl-2,6-methano-3-benzazocine]: the ED50 in the experiment on acetylcholine (methanesulfonate salt) stood at 0.15 mg/kg; in the experiment with phenazocine, 0.48 mg/kg. For the compound `CCCC(=O)Oc1ccc2c(c1)[C@]1(C)CCN(CC3CC3)[C@H](C2=O)[C@@H]1C` (relative stereo) [Example 4, 1,2,3,4,5,6-hexahydro-1-oxo-3-cyclopropylmethyl-8-butyryloxy-6(eq),11(ax)-dimethyl-2,6-methano-3-benzazocine hydrochloride], the ED50 is 0.14 mg/kg in the experiment on acetylcholine (form tested not given) and 6.2 mg/kg in the experiment with phenazocine. `CCCN1CC[C@@]2(C)c3cc(O)ccc3C(=O)[C@@H]1[C@@H]2C` (relative stereo) [Example 15, 1,2,3,4,5,6-hexahydro-1-oxo-3-propyl-8-hydroxy-6(eq),11(ax)-dimethyl-2,6-methano-3-benzazocine]: the ED50 stood at 3.2 mg/kg in the experiment with acetylcholine (form tested not given) and 2.8 mg/kg in the experiment with phenazocine. Turning to `COc1ccc(C(=O)Oc2ccc3c(c2)[C@]2(C)CCN(CC4CC4)[C@H](C3=O)[C@@H]2C)cc1` (relative stereo) [Example 10, 1,2,3,4,5,6-hexahydro-1-oxo-3-cyclopropylmethyl-8-(p-anisoyloxy)-6(eq),11(ax)-dimethyl-2,4-methano-3-benzazocine], the ED50 in the experiment with acetylcholine (form tested not given) stood at 0.1 mg/kg. In the case of `CC[C@H]1[C@H]2C(=O)c3ccc(O)cc3[C@]1(C)CCN2CC1CC1` (relative stereo) [Example 33E, 1,2,3,4,5,6-hexahydro-1-oxo-3-cyclopropylmethyl-8-hydroxy-6(eq)-methyl-11-(ax)-ethyl-2,6-methano-3-benzazocine], the ED50 in the experiment on acetylcholine (form tested not given) came out at 0.47 mg/kg; in the experiment on phenazocine, 0.17 mg/kg. For the compound `C=CCN1CC[C@@]2(C)c3cc(O)ccc3C(=O)[C@@H]1[C@@H]2C` (relative stereo) [Example 16, 1,2,3,4,5,6-hexahydro-1-oxo-3-allyl-8-hydroxy-6(eq),11(ax)-dimethyl-2,6-methano-3-benzazocine], the results for the ED50 with acetylcholine (form tested not given) and in the experiment with phenazocine were 1.5 mg/kg and 2.2 mg/kg, respectively.

On to `CCC(=O)Oc1ccc2c(c1)[C@]1(C)CCN(CC3CC3)[C@H](C2=O)[C@@H]1C` (relative stereo) [Example 3, 1,2,3,4,5,6-hexahydro-1-oxo-3-cyclopropylmethyl-8-propionyloxy-6(eq),11(ax)-dimethyl-2,6-methano-3-benzazocine hydrochloride], for which the “% effect” value in the experiment on acetylcholine (0.1 mg./kg.) stood at 20%; with acetylcholine (1 mg./kg.), 27%; with acetylcholine (10 mg./kg.), 7%; with acetylcholine (100 mg./kg.) it was 47%. In addition, in the experiment on phenazocine, the ED50 came to 6 mg/kg. Regarding `C[C@@H]1[C@H]2C(=O)c3ccc(O)cc3[C@]1(C)CCN2CC1CC1` (relative stereo) [Example 27, 1,2,3,4,5,6-hexahydro-1-oxo-3-cyclopropylmethyl-8-hydroxy-6(eq),11(eq)-dimethyl-2,6-methano-3-benzazocine hydrochloride hemiethanolate], the ED50 came to 30 mg/kg in the experiment on acetylcholine (form tested not given) and 2.8 mg/kg with phenazocine. `Cc1ccc(C(=O)Oc2ccc3c(c2)[C@]2(C)CCN(CC4CC4)[C@H](C3=O)[C@@H]2C)cc1` (relative stereo) [Example 12, 1,2,3,4,5,6-hexahydro-1-oxo-3-cyclopropylmethyl-8-(p-toluyloxy)-6(eq),11(ax)-dimethyl-2,6-methano-3-benzazocine]: the ED50 with acetylcholine (form tested not given) worked out at 0.06 mg/kg. `C[C@H]1[C@H]2C(=O)c3ccc(OC(=O)c4ccccc4)cc3[C@]1(C)CCN2CC1CC1` (relative stereo) [Example 9, 1,2,3,4,5,6-hexahydro-1-oxo-3-cyclopropylmethyl-8-benzoyloxy-6(eq),11(ax)-dimethyl-2,6-methano-3-benzazocine]: the ED50 is 0.07 mg/kg with acetylcholine (form tested not given) and 14 mg/kg in the experiment with phenazocine.

Regarding `C[C@H]1[C@H]2C(=O)c3ccc(OC(=O)C(C)(C)C)cc3[C@]1(C)CCN2CC1CC1` (relative stereo) [Example 5, 1,2,3,4,5,6-hexahydro-1-oxo-3-cyclopropylmethyl-8-pivalyloxy-6(eq),11(ax)-dimethyl-2,6-methano-3-benzazocine], the values for the ED50 in the experiment on acetylcholine (form tested not given) and in the experiment on phenazocine were 0.06 mg/kg and 38 mg/kg, respectively. As for `C[C@H]1[C@H]2C(=O)c3ccc(O)cc3[C@]1(C)CCN2CC1CC1` [Example 26C, 2S,6R,11R-1,2,3,4,5,6-hexahydro-1-oxo-3-cyclopropylmethyl-8-hydroxy-6(eq),11(ax)-dimethyl-2,6-methano-3-benzazocine], the ED50 in the experiment on acetylcholine (methanesulfonate salt) came to 0.11 mg/kg; with phenazocine, 2.4 mg/kg. Regarding `C=CCN1CC[C@@]2(CC)c3cc(O)ccc3C(=O)[C@@H]1[C@@H]2C` (relative stereo) [Example 37, 1,2,3,4,5,6-hexahydro-3-allyl-1-oxo-8-hydroxy-6(eq)-ethyl-11(ax)-methyl-2,6-methano-3-benzazocine], the ED50 with acetylcholine (form tested not given) was 2.3 mg/kg; in the experiment with phenazocine, 6.3 mg/kg. Turning to `CCC[C@]12CCN(CC3CC3)[C@H](C(=O)c3ccc(O)cc31)[C@@H]2C` (relative stereo) [Example 32C, 1,2,3,4,5,6-hexahydro-1-oxo-3-cyclopropylmethyl-8-hydroxy-6(eq)-propyl-11(ax)-methyl-2,6-methano-3-benzazocine], the ED50 in the experiment with acetylcholine (form tested not given) was 1.5 mg/kg. Take `CCCN1CC[C@@]2(CC)c3cc(O)ccc3C(=O)[C@@H]1[C@@H]2C` (relative stereo) [Example 36, 1,2,3,4,5,6-hexahydro-3-propyl-1-oxo-8-hydroxy-6(eq)-ethyl-11(ax)-methyl-2,6-methano-3-benzazocine methanesulfonate]: the ED50 in the experiment with acetylcholine (form tested not given) came to 1 mg/kg; in the experiment with phenazocine, 6.2 mg/kg. With `C[C@H]1[C@H]2C(=O)c3ccc(OC(=O)c4ccc(C(F)(F)F)cc4)cc3[C@]1(C)CCN2CC1CC1` (relative stereo) [Example 13, 1,2,3,4,5,6-hexahydro-1-oxo-3-cyclopropylmethyl-8-(p-trifluoromethylbenzoyloxy)-6(eq),11(ax)-dimethyl-2,6-methano-3-benzazocine], the ED50 with acetylcholine (form tested not given) turned out to be 0.05 mg/kg.

Turning to `C[C@@H]1[C@@H]2C(=O)c3ccc(O)cc3[C@@]1(C)CCN2CC1CC1` [Example 26D, dextro-rotatory 2S,6R,11R-1,2,3,4,5,6-hexahydro-1-oxo-3-cyclopropylmethyl-8-hydroxy-6(eq),11(ax)-dimethyl-2,6-methano-3-benzazocine], the “% effect” value in the experiment with acetylcholine (25 mg./kg., methanesulfonate salt) turned out to be 33%; in the experiment with acetylcholine (75 mg./kg., methanesulfonate salt) it was 93%. In addition, in the experiment with phenazocine (10 mg./kg. subcutaneously, methanesulfonic salt, in words), the “narcotic antagonist effect against phenazocine” value is “inactive”. The “% effect against phenazocine” value in the experiment on phenazocine (80 mg./kg. subcutaneously, methanesulfonic salt) was 32%. For the compound `CC(C)C(=O)Oc1ccc2c(c1)[C@]1(C)CCN(CC3CC3)[C@H](C2=O)[C@@H]1C` (relative stereo) [Example 6, 1,2,3,4,5,6-hexahydro-1-oxo-3-cyclopropylmethyl-8-isobutyryloxy-6(eq),11(ax)-dimethyl-2,6-methano-3-benzazocine], the ED50 in the experiment with acetylcholine (form tested not given) came to 0.09 mg/kg; with phenazocine, 7 mg/kg. As to `COc1cccc(C(=O)Oc2ccc3c(c2)[C@]2(C)CCN(CC4CC4)[C@H](C3=O)[C@@H]2C)c1` (relative stereo) [Example 11, 1,2,3,4,5,6-hexahydro-1-oxo-3-cyclopropylmethyl-8-(m-anisoyloxy)-6(eq),11(ax)-dimethyl-2,6-methano-3-benzazocine hydrochloride], in the experiment with acetylcholine (form tested not given), the ED50 is 0.1 mg/kg. For the compound `CC[C@@]12CCN(CC3CC3)[C@@H](C1)C(=O)c1ccc(O)cc12` (relative stereo) [Example 28C, 1,2,3,4,5,6-hexahydro-1-oxo-3-cyclopropylmethyl-8-hydroxy-6(eq)-ethyl-2,6-methano-3-benzazocine hydrochloride], the ED50 in the experiment on acetylcholine (form tested not given) worked out at 0.38 mg/kg; with phenazocine it was 14 mg/kg. Regarding `CC[C@]12CCN(CC3CC3)[C@H](C(=O)c3ccc(O)cc31)[C@H]2C` (relative stereo) [Example 30C, 1,2,3,4,5,6-hexahydro-1-oxo-3-cyclopropylmethyl-8-hydroxy-6(eq)-ethyl-11(eq)-methyl-2,6-methano-3-benzazocine hydrochloride], the figures for the ED50 in the experiment with acetylcholine (form tested not given) and with phenazocine were 2.1 mg/kg and 4.2 mg/kg, respectively.

On to `CC(=O)Oc1ccc2c(c1)[C@]1(C)CCN(CC3CC3)[C@H](C2=O)[C@@H]1C` (relative stereo) [Example 2, 1,2,3,4,5,6-hexahydro-1-oxo-3-cyclopropylmethyl-8-acetoxy-6(eq),11(ax)-dimethyl-2,6-methano-3-benzazocine hydrochloride], for which the ED50 stood at 0.14 mg/kg with acetylcholine (hydrochloride salt) and 3 mg/kg with phenazocine. Consider `CC(C)CC(=O)Oc1ccc2c(c1)[C@]1(C)CCN(CC3CC3)[C@H](C2=O)[C@@H]1C` (relative stereo) [Example 7, 1,2,3,4,5,6-hexahydro-1-oxo-3-cyclopropylmethyl-8-isovaleryloxy-6(eq),11(ax)-dimethyl-2,6-methano-3-benzazocine], for which the ED50 in the experiment on acetylcholine (form tested not given) was found to be 0.06 mg/kg; in the experiment on phenazocine, 5.2 mg/kg.
